Peptide text beside a SMILES is read from it. * marks the point of attachment. Cbz = O=C(OCc1ccccc1)*
Key:
[1] = tested on: β-Catenin in SW480 cells; experiment: Western analysis of β-Catenin in SW480 cells; assay type: cell-based, human
Method: (§1) Cells were scraped off the 100-mm dish and lysed in 1 ml of lysis buffer (1 mM PMSF, 1 mM EDTA, 10 mM Tris-HCl, 0.1% Triton X100, 1× Complete Protease Inhibitor Cocktail (Roche) in PBS). The lysates were spun down, and 1 μg of anti-c-Myc antibody (Sigma, M4439) or anti-Flag antibody (Sigma, F1804) was added to 500 μl of the supernatant. A 50-50 mixture of protein A Sepharose (Amersham) and protein G Sepharose (Amersham) was added to the lysate/antibody mixture for immunoprecipitation for 1 hour. The resulting outputs were washed with lysis buffer and subjected to western blot analysis. For western blotting, samples were analyzed using antibodies against active-β-Catenin (anti-ABC, Millipore), phospho-β-Catenin (Ser33/37/Thr41, Cell Signaling), β-Catenin (sc-1496, Santa Cruz Biotechnology) and Gapdh (Santa Cruz Biotechnology).
(§2) FIGS. 5A-I. γ-Secretase Inhibitors (GSIs) Suppress Expansion of Human Colon Cancer Cells by Blocking Notch Cleavage (A) Western analysis of active β-Catenin in SW480 colon cancer cells transfected with control or siRNA against Notch1-4 (100 nM each). (B) Relative β-Catenin/TCF activity of SW480 cells treated with increasing doses of DAPT for 96 h. (C) Western analysis of β-Catenin levels in SW480 and a second colon cancer cell line, HT-29, treated with increasing doses (0, 25, 50 or 100 μM) of DAPT for 96 h. (D) Relative number of SW480 cells treated with DAPT (50 or 100 μM) for 72 h. (E) Western analysis of active β-Catenin levels in SW480 cells with increasing DAPT in the presence or absence of proteasome inhibitor (PI) MG-132 (5 nM) for 72 h. […] (F) Notch/RBP-J activity of SW480 cells treated with increasing doses of Ibuprofen. Notch/RBP-J activity was measured by transfecting cells with a luciferase reporter downstream of multiple RBP-J sites. (G) Relative β-Catenin/TCF activity of SW480 cells treated with Ibuprofen for 72 h. (H) Western analysis of active β-Catenin in SW480 cells treated with Ibuprofen for 72 h. (I) Western analysis of active β-Catenin in SW480 cells transfected with Notch1-4 (100 nM each) siRNA and treated with or without ibuprofen. Gapdh antibody was used as a loading control. All luciferase values were normalized to Renilla activity and represent n=4. *, P<0.01. Con, control; N1-4 KD, Notch 1-4 siRNA.

[2] = tested on: hESCs, NSCs and bone marrow mesenchymal stem cells; experiment: β-Catenin activity and protein in other stem cells; assay type: cell-based; conditions: increasing doses of DAPT, 72-96 h
From the text: (§3) FIGS. 3A-I. Membrane-Bound Notch Negatively Regulates Active β-Catenin Levels in Stem Cells (A) Schematic representation of wildtype Notch1 and cleavage site-mutated tethered forms of Notch1 (V1744K and V1774L). […] (C) BIO-treated ESCs transfected with WT or mutant Notch1 constructs and, immunoprecipitated (IP) with anti-Myc antibody and immunoblotted (IB) with β-Catenin antibody. Notch1 expression was detected with anti-Myc antibody. Arrowheads indicate cleaved Notch1. (D) Western analysis of active β-Catenin in ESCs transfected with WT or mutant Notch1 constructs. (E) Relative β-Catenin/TCF activity of ESCs and NSCs treated with increasing doses of DAPT for 72-96 h. (F) Western analysis of active β-Catenin in ESCs, NSCs, and bone marrow mesenchymal stem cells (MSCs) treated with increasing doses (0, 25, 50 or 100 μM) of DAPT for 72-96 h. (G) Relative number of ESCs after treatment with DAPT (50 or 100 μM) for 48 h. (H) Relative expression of Cyclin D1 mRNA in ESCs transfected with control (LacZ) or tethered Notch (V1774L) and cultured for 72 h. (I) Relative expression of Brachyury, Nestin and Sox17 mRNA in ESCs maintained without LIF for 72 h after transfection with control (LacZ) or tethered Notch (V1774L); *, P<0.01; NS, not significant. […] Con, control.

[3] = tested on: active β-Catenin in ESCs; experiment: Western analysis of active β-Catenin in ESCs; assay type: cell-based
From the text: Gapdh antibody was used as a loading control. h, head; ht, heart tube; Con, control; N1 KD, Notch1 siRNA; N1-4 KD, Notch 1-4 siRNA.

[4] = tested on: β-Catenin in HT-29 cells; experiment: Western analysis of β-Catenin in HT-29 cells; assay type: cell-based, human; conditions: HT-29, DAPT 0, 25, 50 or 100 μM, 96 h
Method: as §1
(§4) FIGS. 5A-I. γ-Secretase Inhibitors (GSIs) Suppress Expansion of Human Colon Cancer Cells by Blocking Notch Cleavage (A) Western analysis of active β-Catenin in SW480 colon cancer cells transfected with control or siRNA against Notch1-4 (100 nM each). (B) Relative β-Catenin/TCF activity of SW480 cells treated with increasing doses of DAPT for 96 h. […] Notch/RBP-J activity was measured by transfecting cells with a luciferase reporter downstream of multiple RBP-J sites. […]

[5] = tested on: SW480 cells; experiment: Relative number of SW480 cells (cell expansion); assay type: cell-based, human; conditions: SW480 (FIG. 5D), DAPT 50 or 100 μM, 72 h; text names SW480 and HT-29
Method: as §2, with “Con, control; N1-4 KD, Notch 1-4 siRNA.” left out

[6] = tested on: ESCs; experiment: Relative number of ESCs after treatment; assay type: cell-based; conditions: DAPT 50 or 100 μM, 48 h
From the text: as §3

[7] = tested on: β-Catenin/TCF activity in SW480 cells; experiment: β-Catenin/TCF luciferase activity in SW480 cells; assay type: cell-based, human
Method: (§5) For Notch, RBP-J or Numb/Numbl knockdown experiments, Notch1-4, RBPSUH or Numb/Numbl On-TARGETplus SMARTpool (Dharmacon L-041110, L-044202, L-047867, L-046498, L-007772 or L-046935/L-046983) or Block-iT Alexa Fluor Red (46-5, 318, Invitrogen) was used at concentrations of 50, 100, or 200 nM for cell transfection. Tethered and truncated forms of Notch1 constructs were kindly provided by Drs. R. Kopan (Washington University, St. Louis, Mo.) and M. Nakafuku (Cincinnati Children's Hospital, Cincinnati, Ohio), respectively. Cells were transfected with Lipofectamine LTX (Invitrogen) or Lipofectamine 2000 (Invitrogen) in single-cell suspensions. For gene expression analysis, qPCR was performed with the ABI Prism system (7900HT, Applied Biosystems) with the following primers: β-Catenin (Mm01350394_m1), Cyclin D1 (Mm00432359_m1), Gapdh (Mm99999915_g1). All samples were run at least in triplicate. Real-time quantitative PCR data were normalized and standardized with SDS2.2 software. […]
as §4, with “each).” for “each). (B) Relative β-Catenin/TCF activity of SW480 cells treated with increasing doses of DAPT for 96 h.”

[8] = tested on: β-Catenin/TCF activity in ESCs; experiment: β-Catenin/TCF-directed luciferase reporter (Topflash) in ESCs; assay type: cell-based; conditions: increasing doses of DAPT, 72-96 h
Method: as §5, with “For gene expression analysis, qPCR was performed with the ABI Prism system (7900HT, Applied Biosystems) with the following primers: β-Catenin (Mm01350394_m1), Cyclin D1 (Mm00432359_m1), Gapdh (Mm99999915_g1). All samples were run at least in triplicate.” left out
FIGS. 1A-F. Notch Negatively Regulates Active β-Catenin in Stem Cells Independently of RBP-J (A) Western analysis of ESCs transfected with control or Notch1 (N1) siRNA (50 or 100 nM) with active β-Catenin (Act β-Cat) antibody that detects N-terminal-dephosphorylated β-Catenin. (B and C) Relative β-Catenin/TCF-directed luciferase activity in ESCs (B) or neural stem cells (NSCs) (C) transfected with control siRNA or siRNA against Notch1 or Notch1-4. β-Catenin/TCF activity was measured by co-transfecting cells with a luciferase reporter downstream of multiple TCF binding sites (Topflash). […]

[9] = tested on: Notch/RBP-J activity in SW480 cells; experiment: Notch/RBP-J-dependent luciferase activity in SW480 cells; assay type: cell-based, human; conditions: SW480, increasing doses of Ibuprofen
Method: as §5
as §4, with “each).” for “each). (B) Relative β-Catenin/TCF activity of SW480 cells treated with increasing doses of DAPT for 96 h.”

CC(C)C[C@@H](C=O)NC(=O)[C@H](CC(C)C)NC(=O)[C@H](CC(C)C)NC(=O)OCc1ccccc1 [MG-132] (Cbz-Leu-Leu-Leu-aldehyde)
active β-Catenin levels ([1]; SW480, proteasome inhibitor MG-132 (5 nM), 72 h): higher levels of β-Catenin

C[C@H](NC(=O)Cc1cc(F)cc(F)c1)C(=O)N[C@H](C(=O)OC(C)(C)C)c1ccccc1 [DAPT, N—[N-(3,5-difluorophenacetyl)-L-alanyl]-S-phenylglycine t-butyl ester]
active β-Catenin activity and protein levels [2]: trend was also observed | active β-Catenin protein levels ([3]; DAPT 0, 25, 50 or 100 μM, 72-96 h): significant reduction | β-Catenin protein [4]: dose-dependent decrease | β-Catenin protein ([1]; SW480, DAPT 0, 25, 50 or 100 μM, 96 h): dose-dependent decrease | cell expansion (relative cell number) [5]: dose-dependent decrease | cell numbers [6]: significant decrease | TCF/β-Catenin-dependent transcriptional activity ([7]; SW480 (FIG. 5B), increasing doses of DAPT, 96 h, text names SW480 and HT-29): dose-dependent decrease | active β-Catenin activity (relative β-Catenin/TCF activity) [8]: significant reduction

O=C1Nc2cc(Br)ccc2/C1=C1/Nc2ccccc2/C1=N\O [BIO, 6-bromoindirubin-3′-oxime]
active β-Catenin levels ([3]; BIO 2 μM): greatly increases

CC(C)Cc1ccc(C(C)C(=O)O)cc1 (centres unmarked) [Ibuprofen]
active β-Catenin protein ([1]; SW480, Ibuprofen, 72 h): lowered | reduction of β-Catenin protein levels after knockdown of Notch1-4 ([1]; SW480 transfected with Notch1-4 siRNA (100 nM each), with or without ibuprofen): not observed | canonical Notch transcriptional activity (Notch/RBP-J-dependent luciferase activity) [9]: dose-dependent decrease | active β-Catenin transcriptional activity ([7]; SW480, Ibuprofen, 72 h): lowered
